Tests used:
[1] = tested on: Klebsiella pneumoniae (KPN) isolates; assay: MIC of compounds alone and combined with antibacterials, broth microdilution (CLSI); type: cell-based
Outline: (§1)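 Log-phase isolates were inoculated at a final 5.10^5 CFU/mL in cation-adjusted Mueller-Hinton broth and incubated 16-20 h at 35° C in ambient air. MIC was the lowest concentration preventing visible growth; for combinations, the antibacterial MIC was read at each compound concentration.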

[2] = tested on: Providencia rettgeri (PRE) isolates; assay: as above; type: cell-based
Outline: as §1

C=CC1=C(C(=O)O)N2C(=O)[C@@H](NC(=O)/C(=N\OCC(=O)O)c3csc(N)n3)[C@H]2SC1 [FIX, Cefixime]
MIC ([1]; strain KPN 700603, genotype SHV-18, OXA-2): 16 mg/L | MIC ([1]; strain KPN ARA, genotype TEM-1, SHV-11, CTX-M-15, OXA-1, OXA-48): >128 mg/L | MIC ([1]; strain KPN BAA-1898, genotype TEM-1, SHV-11, SHV-12, KPC-2): >128 mg/L | MIC ([1]; strain KPN LIB, genotype SHV-11, OXA-48): <=0.25 μg/mL | MIC ([1]; strain KPN UFR22_O, genotype TEM-1, SHV-1, OXA-48): <=0.25 μg/mL | MIC ([1]; strain KPN UFR23, genotype TEM-1, SHV-1, OXA-48): <=0.25 μg/mL | MIC ([1]; strain KPN UFR24, genotype TEM-1, SHV-2, SHV-11, OXA-1, OXA-48, OXA-47): >128 mg/L | MIC ([1]; strain KPN UFR25, compound alone): >128 mg/L | MIC ([1]; strain KPN UFR25, genotype TEM-1, SHV-11, CTX-M-15, OXA-162): >128 mg/L | MIC ([1]; strain KPN UFR27, genotype TEM-1, SHV-28, CTX-M-15, OXA-204): >128 mg/L | MIC ([1]; strain KPN UFR28, genotype TEM-1, SHV-1, CTX-M-15, OXA-1, OXA-232): 256 mg/L | MIC ([1]; strain KPN UFR33, genotype TEM-2, SHV-12, CTX-M-15, OXA-1, OXA-10): >128 mg/L | MIC ([1]; strain KPN UFR42, genotype SHV-2, CTX-M-15 OXA-1, OXA-181, NDM-1): >128 mg/L | MIC ([1]; strain KPN UFR43, genotype SHV-11, CTX-M-15, CMY-2, OXA-1, NDM-1): >128 mg/L | MIC ([1]; strain KPN UFR46, genotype TEM-1, SHV-12, CTX-M-15, OXA-9, VIM-1): >128 mg/L | MIC ([1]; strain KPN UFR53, genotype TEM-1, IMP-1): >128 mg/L | MIC ([1]; strain KPN UFR65, genotype TEM-1, SHV-11, KPC-2): >128 mg/L | MIC ([1]; strain KPN UFR66, compound alone): 512 mg/L | MIC ([1]; strain KPN UFR66, genotype TEM-1, SHV-11, CTX-M-15, KPC-2): 512 mg/L | MIC ([1]; strain KPN UFR67, genotype TEM-1, SHV-11, KPC-3): >128 mg/L | MIC ([1]; strain KPN UFR68, compound alone): >128 mg/L | MIC ([1]; strain KPN UFR68, genotype TEM-1, SHV-11, CTX-M-15, KPC-3): >128 mg/L | MIC ([1]; strain KPN UFR76, genotype TEM-155, SHV-11, ACT-1, OXA-2): >128 mg/L | MIC ([1]; strain KPN UFR77, genotype CMY-2): 128 mg/L | MIC ([1]; strain KPN UFR78, genotype TEM-1, SHV-1, CTX-M-15, CMY-2, OXA-1, OXA-48): >128 mg/L | MIC ([1]; strain KPN UFR79, genotype DHA-1, OXA-1): >128 mg/L | MIC ([1]; strain KPN UFR80, genotype SHV-11, DHA-1, OXA-1): <=0.25 μg/mL | MIC ([1]; strain KPN UFR81, genotype TEM-1, SHV-1, DHA-1, OXA-48): >128 mg/L | MIC ([1]; strain KPN UFR162, genotype SHV-28, TEM-1, CTX-M-15, OXA-181, OXA-181, NDM-1, antibiotic alone): >128 mg/L | MIC ATB in combination ([1]; strain KPN UFR162, with AF2 @ 8 μg/mL): >128 mg/L | MIC ATB in combination ([1]; strain KPN UFR162, with AF3 @ 8 μg/mL): <0.25 mg/L | MIC ATB in combination ([1]; strain KPN UFR162, with CLA @ 4 μg/mL): >128 mg/L | MIC ([1]; strain KPN UFR163, genotype TEM-1, SHV-1, CTX-M-15, OXA-232, OXA-9, NDM-1, qnrB1, qepA, RmtB, antibiotic alone): >128 mg/L | MIC ATB in combination ([1]; strain KPN UFR163, with AF2 @ 8 μg/mL): >128 mg/L | MIC ATB in combination ([1]; strain KPN UFR163, with AF3 @ 8 μg/mL): <0.25 mg/L | MIC ATB in combination ([1]; strain KPN UFR163, with CLA @ 4 μg/mL): >128 mg/L | MIC ([1]; strain KPN UFR164, genotype SHV-11, CTX-M-15, OXA-1, OXA-181, NDM-1, antibiotic alone): >128 mg/L | MIC ATB in combination ([1]; strain KPN UFR164, with AF2 @ 8 μg/mL): >128 mg/L | MIC ATB in combination ([1]; strain KPN UFR164, with AF3 @ 8 μg/mL): >128 mg/L | MIC ATB in combination ([1]; strain KPN UFR164, with CLA @ 4 μg/mL): >128 mg/L | MIC ([1]; strain KPN UFR165, genotype TEM-1, SHV-11, CTX-M-15, OXA-1, OXA-181, NDM-1, antibiotic alone): >128 mg/L | MIC ATB in combination ([1]; strain KPN UFR165, with AF2 @ 8 μg/mL): 64 mg/L | MIC ATB in combination ([1]; strain KPN UFR165, with AF3 @ 8 μg/mL): >128 mg/L | MIC ATB in combination ([1]; strain KPN UFR165, with CLA @ 4 μg/mL): >128 mg/L | MIC ([1]; strain KPN UFR166, genotype TEM-1, TEM-1, CTX-M-15, OXA-181, OXA-9, NDM-1, antibiotic alone): >128 mg/L | MIC ATB in combination ([1]; strain KPN UFR166, with AF2 @ 8 μg/mL): >128 mg/L | MIC ATB in combination ([1]; strain KPN UFR166, with AF3 @ 8 μg/mL): >128 mg/L | MIC ATB in combination ([1]; strain KPN UFR166, with CLA @ 4 μg/mL): >128 mg/L | MIC ([1]; strain KPN UFR167, genotype TEM-1, SHV-12, CTX-M-15, OXA-9, NDM-1, antibiotic alone): >128 mg/L | MIC ATB in combination ([1]; strain KPN UFR167, with AF2 @ 8 μg/mL): >128 mg/L | MIC ATB in combination ([1]; strain KPN UFR167, with AF3 @ 8 μg/mL): >128 mg/L | MIC ATB in combination ([1]; strain KPN UFR167, with CLA @ 4 μg/mL): >128 mg/L | MIC ([1]; strain KPN UFR168, genotype SHV-2, CTX-M-15, OXA-1, OXA-181, NDM-1, ArmA, antibiotic alone): >128 mg/L | MIC ATB in combination ([1]; strain KPN UFR168, with AF2 @ 8 μg/mL): >128 mg/L | MIC ATB in combination ([1]; strain KPN UFR168, with AF3 @ 8 μg/mL): >128 mg/L | MIC ATB in combination ([1]; strain KPN UFR168, with CLA @ 4 μg/mL): >128 mg/L | MIC ([1]; strain KPN UFR169, genotype TEM-1, SHV-28, CTX-M-15, CMY-4, OXA-1, NDM-1, antibiotic alone): >128 mg/L | MIC ATB in combination ([1]; strain KPN UFR169, with AF2 @ 8 μg/mL): >128 mg/L | MIC ATB in combination ([1]; strain KPN UFR169, with AF3 @ 8 μg/mL): >128 mg/L | MIC ATB in combination ([1]; strain KPN UFR169, with CLA @ 4 μg/mL): >128 mg/L | MIC ([1]; strain KPN UFR170, genotype TEM-1, SHV-28, CTX-M-15, CMY-6, OXA-1, OXA-9, NDM-1, antibiotic alone): >128 mg/L | MIC ATB in combination ([1]; strain KPN UFR170, with AF2 @ 8 μg/mL): <0.25 mg/L | MIC ATB in combination ([1]; strain KPN UFR170, with AF3 @ 8 μg/mL): >128 mg/L | MIC ATB in combination ([1]; strain KPN UFR170, with CLA @ 4 μg/mL): >128 mg/L | MIC ([1]; strain KPN UFR171, genotype TEM-1, SHV-28, CTX-M-15, OXA-1, OXA-10, NDM-1, RmtA, antibiotic alone): >128 mg/L | MIC ATB in combination ([1]; strain KPN UFR171, with AF2 @ 8 μg/mL): <0.25 mg/L | MIC ATB in combination ([1]; strain KPN UFR171, with AF3 @ 8 μg/mL): <0.25 mg/L | MIC ATB in combination ([1]; strain KPN UFR171, with CLA @ 4 μg/mL): >128 mg/L | MIC ([1]; strain KPN UFR172, genotype SHV-38, CMY-16, OXA-10, NDM-1, antibiotic alone): >128 mg/L | MIC ATB in combination ([1]; strain KPN UFR172, with AF2 @ 8 μg/mL): <0.25 mg/L | MIC ATB in combination ([1]; strain KPN UFR172, with AF3 @ 8 μg/mL): <0.25 mg/L | MIC ATB in combination ([1]; strain KPN UFR172, with CLA @ 4 μg/mL): >128 mg/L | MIC ([1]; strain KPN UFR215, genotype SHV-27, CTX-M-15): >128 mg/L | MIC ([1]; strain KPN UFR216, genotype SHV-28, CTX-M-15): >128 mg/L | MIC ([1]; strain KPN UFR217, genotype TEM-1, SHV-1, CTX-M-15): >128 mg/L | MIC ([1]; strain KPN UFR219, genotype SHV-12, CTX-M-15): >128 mg/L | MIC ([1]; strain KPN UFR220, genotype TEM-1, SHV-12, DHA-1): >128 mg/L | MIC ([1]; strain KPN UFR221, genotype TEM-1, SHV-11, CTX-M-14, DHA-1): 64 mg/L | MIC ([1]; strain KPN UFR222, genotype DHA-2): >128 mg/L | MIC ([1]; strain KPN UFR227O, genotype TEM-x, SHV-x, CTX-M-x): >128 mg/L | MIC ([1]; strain KPN UFR229O, genotype SHV-12, VIM-1, antibiotic alone): >128 mg/L | MIC ATB in combination ([1]; strain KPN UFR229O, with AF2 @ 8 μg/mL): >128 mg/L | MIC ATB in combination ([1]; strain KPN UFR229O, with AF3 @ 8 μg/mL): >128 mg/L | MIC ATB in combination ([1]; strain KPN UFR229O, with CLA @ 4 μg/mL): >128 mg/L | MIC ATB in combination ([2]; PRE UFR99, AF2 @ 8 μg/mL): >128 mg/L | MIC ATB in combination ([2]; PRE UFR99, AF3 @ 8 μg/mL): >128 mg/L | MIC ATB in combination ([2]; PRE UFR99, CLA @ 4 μg/mL): >128 mg/L | MIC ([2]; strain PRE UFR96, genotype CTX-M-15, NDM-1): >128 mg/L | MIC ATB in combination ([2]; strain PRE UFR96, with AF2 @ 8 μg/mL): <0.25 mg/L | MIC ATB in combination ([2]; strain PRE UFR96, with AF3 @ 8 μg/mL): <0.25 mg/L | MIC ATB in combination ([2]; strain PRE UFR96, with CLA @ 4 μg/mL): >128 mg/L | MIC ([2]; strain PRE UFR97, genotype TEM-1, NDM-1): >128 mg/L | MIC ATB in combination ([2]; strain PRE UFR97, with AF2 @ 8 μg/mL): >128 mg/L | MIC ATB in combination ([2]; strain PRE UFR97, with AF3 @ 8 μg/mL): >128 mg/L | MIC ATB in combination ([2]; strain PRE UFR97, with CLA @ 4 μg/mL): >128 mg/L | MIC ([2]; strain PRE UFR99, genotype OXA-1, OXA-181): >128 mg/L | MIC ([2]; strain PRE UFR236, genotype TEM-1, OXA-48): 32 mg/L | MIC ATB in combination ([2]; strain PRE UFR236, with AF2 @ 8 μg/mL): <=0.25 μg/mL | MIC ATB in combination ([2]; strain PRE UFR236, with AF3 @ 8 μg/mL): <=0.25 μg/mL | MIC ATB in combination ([2]; strain PRE UFR236, with CLA @ 4 μg/mL): 32 mg/L
